Assay results published in patent US20100004316A1, “MULTIFUNCTIONAL CARRIERS FOR THE DELIVERY OF NUCLEIC ACIDS AND METHODS OF USE THEREOF” (UNIVERSITY OF UTAH RESEARCH FOUNDATION, priority 2006, published 2010).

Assays:
rat red blood cells = experiment: Hemolysis assay at different pHs; assay type: cell-based; settings: for hemolysis: pH 7.4, 6.5 and 5.4 (all cases); for hemolytic activity: 8.3 μM
Method: Hemolysis assay. THCO (16.7 μM), DOTAP (16.7 μM) and Triton X-100 (1%, w/v) were dissolved in phosphate buffered saline (PBS) at a starting pH of 7.4, 6.5, or 5.4 as stock solutions. A rat was sacrificed and blood was obtained by cardiac puncture. Erythrocytes (RBC) were isolated by centrifugation at 1500 g for 10 min at 4° C. The cell pellet was resuspended into a 2% (w/v) RBC solution with prechilled PBS and then seeded (100 μL) into a 96-well plate. 100 μL of testing samples were added to RBC solutions and the plate was incubated for 1 h at 37° C. The absorbance of the supernatant from each sample was measured at 550 nm using a micro-plate reader.
Hemolysis assay. The assays were performed using the techniques described above. The pH sensitive amphiphilic cell membrane disruption of the MFCs was evaluated by hemolysis assay with rat red blood cells at different pHs. […] Generally, all MFCs had lower hemolytic activity at pH 7.4 than at pH 6.5 and 5.4.

U87-Luc cells [1] = experiment: Luciferase gene silencing with anti-luciferase siRNA in U87-Luc cells; assay type: cell-based
Method: THCO-mediated delivery of siRNA targeting a luciferase reporter gene. U87-Luc cells were seeded 24 hours prior to transfection into a 96-well plate at a density of 5000 cells/well. At the time of siRNA transfection, the medium in each well was replaced with fresh serum-free medium. 20 nM anti-luciferase siRNA or non-specific siRNA was complexed with THCO or Transfast™ or DOTAP and incubated for 30 min before use. The transfection by Transfast or DOTAP was performed according to the manufacture's instruction. Complexes were incubated with the cells for 4 hours at 37° C. The medium was then replaced with 100 μL of fresh complete medium and cells were incubated for additional 44 hours. All the transfection tests were performed in triplicate wells. After the incubation, cells were washed with pre-warmed PBS and treated with 200 μL cell lysis buffer and then subjected to a freezing-thawing cycle. Cellular debris was removed by centrifugation at 14,000 g for 5 minutes. The luciferase activity in cell lysate (20 μL) was measured using a luciferase assay kit (100 μL luciferase assay buffer) on a luminometer for 10 seconds (Lumat 9605, EG&G Wallac). The gene silencing efficiency was normalized against the luciferase expression of untreated cells. The siRNA delivery efficiency was also similarly evaluated in 10% FBS medium.
G. In vitro delivery of nucleic acids by MFCs MFC-mediated in vitro gene silencing with siRNA. U87-luc cells with constitutive expression of firefly luciferase were maintained in minimal essential medium (ATCC) containing 10% FBS, G418 (300 μg/mL), streptomycin (100 μg/mL) and penicillin (100 units/mL). U87-Luc cells were seeded 24 hours prior to transfection into a 96-well plate at a density of 5000 cells/well. At the time of siRNA transfection, the medium in each well was replaced with fresh serum-free medium. Anti-luciferase siRNA was complexed with the MFC, TransFast or DOTAP and incubated for 30 min before use. Complexes were incubated with the cells for 4 hours at 37° C. The medium was then replaced with 100 μL of fresh complete medium and cells were incubated for an additional 44 hours. The cells were then washed with pre-warmed PBS, treated with 200 μL cell lysis buffer and subjected to a freezing-thawing cycle. Cellular debris was removed by centrifugation at 14,000 g for 5 minutes. The luciferase activity in cell lysate (20 μL) was measured using a luciferase assay kit (100 μL luciferase assay buffer) on a luminometer for 10 seconds (Lumat 9605, EG&G Wallac). The gene silencing efficiency was normalized against the luciferase expression of untreated cells.

U87 cells = experiment: MTT cytotoxicity assay in U87 cells; assay type: cell-based; settings: concentration of 250 μg/mL, 24 h
Method: In another study, U87 cells were seeded in a 96-well plate 24 h before the assay at a density of 10,000 cells/well. The cells were incubated with 200 μL of medium containing THCO at different concentrations and incubate for 24 h. Then 25 μL MTT solution in PBS was added and cells were incubated for another 2 hours. After removing media, 200 μL of DMSO was added to the wells and cells were incubated at 37° C. for 5 min. The optical densities were measured at 570 nm using a micro-plate reader (Model 550, Bio-Rad Lab. Hercules, Calif.). The relative cell viability was calculated as described above. […] The viability of U87 cells incubated with THCO was 79±8% at a concentration of 250 μg/mL as determined the MTT assay, slightly higher than that of DOTAP (72±4%) (FIG. 8).

U87-luc xenograft = experiment: In vivo luciferase knockdown with anti-luc siRNA complexes, bioluminescence imaging; design: species or system mice; settings: 50 μg anti-luciferase siRNA i.p.
Method: Animal tumor model. U87 cells with stably expression of luciferase were collected and resuspended with medium/matrigel mixture (v/v=l/l). 100 μL of cell suspension containing 2 million cells were injected subcutaneously in the right flanks of the mice.
Carriers. EHCO was selected for the study. DOTAP is a commercial available transfection agent that has been used to deliver siRNA in vivo and was used as a control carrier. siRNAs. Anti-Luciferase siRNA was used to knockdown luciferase expression in mice so as to noninvasively detect gene silencing efficiency by bioluminescence imaging. […] The sequence of antisense is 5′-[…]dTdT-3′ and that of sense is 3′-dTd[…]-5′. siRNA targeting HIF was provided Huntsman Cancer Institute, University of Utah. The sequence of antisense is 5′-[…]dTdT-3′ and that of sense is 3′-dTdT […]-5′.
Administration of Anti-Luc siRNA complexes and Luciferase mouse imaging. Bioluminescence imaging of mice were taken one day before the administration of the anti-luciferase complexes. […] Images were quantified using LivingImage software (Xenogen). […] The luminescence signal intensity on the day before the mice received the anti-luc complexes were set as 100% and the subsequent luciferase expression level in mice after siRNA treatments were normalized to the percentage relative to those at day 0.

U87-Luc cells [2] = experiment: Cytotoxicity of MFC/siRNA complexes (MTT); assay type: cell-based; settings: siRNA complexes, 100 nM siRNA
Method: Cytotoxicity of MFC/siRNA complexes. U87-luc cells were incubated with MFC/siRNA complexes of different carriers according to the protocol described above. MTT in PBS (5 mg/mL, 25 μL) was added to each well after incubation and cells were incubated for another 2 hours. After cell culture medium was removed, 200 μL DMSO was added to each well and cells were incubated at 37° C. for 5 min. The optical absorption was measured at 570 nm using a micro-plate reader (Model 550, Bio-Rad Lab. Hercules, Calif.). The relative cell viability was calculated with the equation ([Abs]sample-[Abs]blank)/([Abs]control-[Abs]blank)×100%.

[3] = Particle size of MFC/siRNA complexes by dynamic light scattering
Method: Particle Size Analysis. Samples were prepared by mixing 5.0 μg of plasmid DNA or siRNA with appropriate amount of materials in dust-free water and analyzed using a Brookhaven Instruments BI-200SM system equipped with a 5 mW helium neon laser with a wavelength output of 633 nm. The effective diameter and population distribution were computed from the diffusion coefficient using functions supplied by the instrument. Measurements were made at 25° C. at an angle of 90° and each sample was analyzed in triplicate.
Formation and size measurement of MFC/siRNA nanoparticles. MFC/siRNA nanoparticulate complexes were prepared and characterized using the techniques described above. The complexation of the polymerizable MFCs with siRNA and formation of nanoparticles of the complexes were investigated by dynamic light scattering. EHCO was first used to study the complexation with siRNA and the impact of N/P ratios on the complexation and formation of nanoparticles. […] The particle size of siRNA complexes with other polymerizable surfactants was measured at the N/P ratios of 8 and 10 based on the observation with EHCO.

## Triton X-100 [reference compound]
Rat red blood cells
  hemolysis: complete hemolysis

## N-(2,3-dioleoyloxy-1-propyl)trimethylammonium methyl sulfate [DOTAP, reference compound]
U87-Luc cells [1]; 20 nM siRNA, serum free medium, THCO N/P=8, FIG. 12
  gene silencing efficiency: 47.1±3.8%
U87-Luc cells [1]; 20 nM siRNA, serum-free medium, THCO at N/P ratios from 4 to 16
  gene silencing efficiency: 47%
U87 cells
  viability of U87 cells: 72±4%
U87-luc xenograft; two treatments
  effect on luciferase expression in the tumor: did not have significant effect after the second treatment
Rat red blood cells
  hemolysis: Little hemolysis

## CCCCCCCCC=CCCCCCCCC(=O)NC(CS)C(=O)NC(Cc1cnc[nH]1)C(=O)NCCNC(=O)CCN(CCN)CCC(=O)NCCNC(=O)C(Cc1cnc[nH]1)NC(=O)C(CS)NC(=O)CCCCCCCC=CCCCCCCCC (centres unmarked) [EHCO, (1-aminoethyl)imino-bis[N-(oleicyl-cysteinyl-histinyl-1-aminoethyl)propion-amide]]
U87-Luc cells [1]; 20 nM siRNA, MFCs at N/P ratio of 10, FIG. 21b
  luciferase silencing (transfection) efficiency: 74.5±1.0%
U87-Luc cells [1]; 100 nM siRNA, MFCs at N/P ratio of 10, FIG. 21a
  knockdown of luciferase expression: 88.4±3.1%
U87-Luc cells [2]
  cell viability: 86.7±8.3%
U87-luc xenograft; after two treatments
  reduction of luciferase expression in the tumor: more than 50%
[3]; N/P ratio of 0.5, incubated 30 minutes
  particle size of siRNA complexes (diameter): approximately 200 nm
[3]; N/P ratio of 4
  particle size of siRNA complexes: about 3 μm
[3]; N/P ratio of 6
  particle size of siRNA complexes: approximately 240 nm
[3]; N/P ratio of 8, dust free water
  particle size of siRNA complexes (diameter): approximately 200 nm
[3]; N/P ratio of 10
  particle size of siRNA complexes: ~151 nm
Rat red blood cells; pH 6.5, PBS
  hemolytic activity: negligible hemolysis
Rat red blood cells; pH 7.4, PBS
  hemolytic activity: negligible hemolysis
